Assay results taken from US20060069132A1, “Azolecarboxamide herbicides” (priority 2004, published 2006).

Legend:
[1] = system: corn (maize) cv. Pioneer 33G26; test: Test G safening on corn by naphthalic anhydride seed treatment, preemergence; assay type: in vivo, Zea mays
Description: This test evaluated the safening of compounds of the invention on corn (maize; Zea mays L.) cv. ‘Pioneer 33G26’ by seed treatment with naphthalic anhydride (1,8-naphthalic anhydride). All corn seed had been first treated with fludioxonil and metaxyl applied at the manufacturer's recommended rate as per the Pioneer 33G26 label. Some of the corn seed were subsequently also treated with naphthalic anhydride as a 1% by weight seed dressing. The corn seed were planted in pots containing pasteurized Sassafras sandy loam soil, and then treatments were applied preemergence the same day. Treatments were applied by spraying the test compounds formulated in a non-phytotoxic solvent mixture, using a flat fan nozzle and a spray volume of 280 L/ha. The treatments were triply replicated and the results subsequently averaged. The pots were placed on a greenhouse bench using a complete randomized block design except for the first replicate, which was unrandomized. The plants were grown in the greenhouse and watered as needed with a dilute nutrient solution containing 200 ppm of N. Illumination was daylight supplemented by artificial sources to maintaining a photoperiod of 16 hours. The temperature was maintained at 28±2° C. during the day and 23±2° C. at night. The plant response was visually rated 25 days after treatment in comparison to untreated controls using a scale of 0 to 100, with 0 representing no effect and 100 representing complete plant death.

[2] = system: wheat cv. Retical; test: Test H safening on wheat by naphthalic anhydride seed treatment, pre-/postemergence; assay type: in vivo, Triticum aestivum; set-up: key to Response of wheat, Without naphthalic anhydride seed treatment: 0 = no effect, 100 = complete plant death, vs untreated control
Description: This test evaluated the safening of compounds of the invention on wheat (Triticum aestivumL.) cv. ‘Retical’ by seed treatment with naphthalic anhydride. Some of the wheat seed was treated with napthalic anhydride as a 1% by weight seed dressing. The wheat seed were planted in pots containing pasteurized Sassafras sandy loam soil. For postemergence testing the plants were grown 8 days to the 2-leaf stage at time of treatment. Preemergence treatments were applied the same day that the seeds were planted. Treatments were applied by spraying the test compounds formulated in a non-phytotoxic solvent mixture, using a flat fan nozzle and a spray volume of 280 L/ha. The preemergence treatments were triply replicated and the results subsequently averaged. The pots were placed on a growth chamber bench using a complete randomized block design for the preemergence test except for the first replicate, which was unrandomized. The plants were grown in the growth chamber and watered as needed with a dilute nutrient solution containing 200 ppm of N. Illumination was provided by fluorescent lamps giving 200-300 μE/m^2/S of photosynthetically active radiation over a 14-hour photoperiod. The temperature was maintained at 23±2° C. during the day and 17±2° C. at night. The effects of the treatments were rated 25 days after preemergence treatment and 14 days after postemergence treatment. The plant response was visually rated in comparison to untreated controls using a scale of 0 to 100, with 0 representing no effect and 100 representing complete plant death. The results for the compounds tested preemergence are listed in Table H1, and the results for the compounds tested postemergence are listed in Table H2.

[3] = system: winter barley; test: Test F pre-/postemergence herbicide test; assay type: in vivo, Hordeum vulgare
Description: Seeds of plant species selected from annual blugrass (Poa annua L.), blackgrass (Alopecurus myosuroides Huds.), catchweed bedstraw (Gallium aparine L.), common chickweed (Stellaria media (L.) Vill./Cyr.), downy bromegrass (Bromus tectorum L.), green foxtail (Setaria viridis (L.) Beauv.), Italian ryegrass (Lolium multiflorum Lam.), kochia (Kochia scoparia (L.). Schrad.), lambsquarters (Chenopodium album L.), littleseed canarygrass (Phalaris minor Retz.), pigweed (Amaranthus retroflexus L.), Russian thistle (Salsola kali L. ssp. Ruthenica (Iljin) Soo), wild buckwheat (Polygonum convolvulus L.), wild mustard (Sinapis arvensis L.), wild oat (Avena fatua L.), windgrass (Apera spica-venti (L.) Beauv.), winter barley (Hordeum vulgare L.), and wheat (Triticum aestivum L.) were planted and treated preemergence with test chemicals formulated in a non-phytotoxic solvent mixture which included a surfactant.
At the same time, plants selected from these crop and weed species were treated with postemergence applications of some of the test chemicals formulated in the same manner. Plants ranged in height from 2 to 18 cm (1- to 4-leaf stage) for postemergence treatments. Treated plants and controls were maintained in a greenhouse for 12 to 14 days, after which time all species were compared to controls and visually evaluated. Plant response ratings, summarized in Table F, are based on a scale of 0 to 100 where 0 is no effect and 100 is complete control. A dash (-) response means no test result.

[4] = system: downy bromegrass; test: Test A pre-/postemergence herbicide test; assay type: in vivo, Bromus tectorum; conditions: Preemergence, visual rating, 0 to 100 scale (0 no effect, 100 complete control)
Description: Seeds of plant species selected from barnyardgrass (Echinochloa crus-galli (L.) Beauv.), downy bromegrass (Bromus tectorum L.), large crabgrass (Digitaria sanguinalis (L.) Scop.), giant foxtail (Setaria faberi Herrm.), morningglory (Ipomoea spp.), redroot pigweed (Amaranthus retroflexus L.) and velvetleaf (Abutilon theophrasti Medik.) were planted into a sandy loam soil and treated preemergence with a directed soil spray using test chemicals formulated in a non-phytotoxic solvent mixture which included a surfactant. At the same time plants selected from these species were also treated postemergence by spraying to runoff with test chemicals formulated.
Plants ranged in height from 2 to 10 cm and were in the one- to two-leaf stage for the postemergence treatment. Treated plants and untreated controls were maintained in a greenhouse for approximately ten days, after which time all treated plants were compared to untreated controls and visually evaluated for injury. Plant response ratings, summarized in Table A, are based on a 0 to 100 scale where 0 is no effect and 100 is complete control. A dash (-) response means no test results.

## CCn1nc(C(C)(C)C)cc1C(=O)Nc1cc(C(=O)N(C)C)ccc1F [Compound 6, N-[5-[(dimethylamino)carbonyl]-2-fluorophenyl]-3-(1,1-dimethylethyl)-1-ethyl-1H-pyrazole-5-carboxamide]
[1]; 62 g a.i./ha
  Response of corn, With 1% naphthalic anhydride seed treatment: 60
  Response of corn, Without naphthalic anhydride seed treatment: 65
[1]; 125 g a.i./ha
  Response of corn, With 1% naphthalic anhydride seed treatment: 62
  Response of corn, Without naphthalic anhydride seed treatment: 68
[1]; 250 g a.i./ha
  Response of corn, With 1% naphthalic anhydride seed treatment: 78
  Response of corn, Without naphthalic anhydride seed treatment: 88
[1]; 500 g a.i./ha
  Response of corn, With 1% naphthalic anhydride seed treatment: 70
  Response of corn, Without naphthalic anhydride seed treatment: 92
[2]; postemergence, 62 g a.i./ha
  Response of wheat, With 1% naphthalic anhydride seed treatment: 65
  Response of wheat, Without naphthalic anhydride seed treatment: 75
[2]; postemergence, 125 g a.i./ha
  Response of wheat, With 1% naphthalic anhydride seed treatment: 75
  Response of wheat, Without naphthalic anhydride seed treatment: 75
[2]; preemergence, 62 g a.i./ha
  Response of wheat, With 1% naphthalic anhydride seed treatment: 77
  Response of wheat, Without naphthalic anhydride seed treatment: 99
[2]; preemergence, 125 g a.i./ha
  Response of wheat, With 1% naphthalic anhydride seed treatment: 100
  Response of wheat, Without naphthalic anhydride seed treatment: 100

## CCn1nc(C(C)(C)C)cc1C(=O)Nc1cc(C(=O)OC(C)C)c(F)cc1F [Compound 248]
[3]; Postemergence, 31 g ai/ha
  Plant response rating (0-100), Barley, Winter: 25
[3]; Postemergence, 62 g ai/ha
  Plant response rating (0-100), Barley, Winter: 30
[3]; Postemergence, 125 g ai/ha
  Plant response rating (0-100), Barley, Winter: 30
[3]; Postemergence, 250 g ai/ha
  Plant response rating (0-100), Barley, Winter: 40
[3]; Preemergence, 31 g ai/ha
  Plant response rating (0-100), Barley, Winter: 0
[3]; Preemergence, 62 g ai/ha
  Plant response rating (0-100), Barley, Winter: 0
[3]; Preemergence, 125 g ai/ha
  Plant response rating (0-100), Barley, Winter: 0
[3]; Preemergence, 250 g ai/ha
  Plant response rating (0-100), Barley, Winter: 35

## CC(=NO)c1cccc(NC(=O)c2cc(C(C)(C)C)nn2C)c1 [Compound 102]
[4]; 500 g ai/ha
  Bromegrass, Downy plant response rating: 60
[4]; 2000 g ai/ha
  Bromegrass, Downy plant response rating: 60
